Broadly, the IC50 is the midpoint of a concentration-inhibition curve.

In this assay the test system is S. Typhimurium PhoP-regulated promoter GFP reporter, 4 h. Nature of the assay: PhoP-dependent GFP reporter repression – Salmonella Typhimurium, primary screen (AID 1863).

Consider `NC1CCN(c2nc3c(cc2F)c(=O)c(C(=O)O)cn3-c2ccc(F)cc2F)C1` (configuration not stated), for which the IC50 was 0.49 µM.

With `CC[n+]1c(/C=C/c2ccc(N(C)C)cc2)ccc2ccccc21`, the IC50 was 54.8 µM.

On to `CCCOc1ccc(C(=O)C(CCC(CNCC)C(=O)c2ccc(OCCC)cc2)CNCC)cc1` (configuration not stated), for which the IC50 is 94.6 µM.

For the compound `CC1CCc2cc(F)cc3c(=O)c(C(=O)O)cn1c23` (configuration not stated), the IC50 was 5.94 µM.

With `CCn1cc(C(=O)O)c(=O)c2ccc(C)nc21`, the IC50 is 85.6 µM.

Take `O=[N+]([O-])c1cc(O)c2ncccc2c1`: the IC50 is 27.9 µM.

Turning to `Cc1cc(C(C)(C)CC(C)(C)C)ccc1OCCOCC[N+](C)(C)Cc1ccccc1`, the IC50 was 31.8 µM.

On to `CNc1nc(NCc2ccccc2)c2ccccc2n1`, for which the IC50 was 136 µM.

As for `CN1CCN(C(c2ccc(Cl)cc2)c2cc(Cl)c3cccnc3c2O)CC1` (configuration not stated), the IC50 is 44.1 µM.

As for `OC(c1cc(-c2ccc(C(F)(F)F)cc2)nc(C(F)(F)F)c1)C1CCCCN1` (configuration not stated), the half-maximal inhibitory concentration (IC50) was 38.1 µM.

For the compound `CC(C)(C)CC(C)(C)c1ccc(OCCOCC[N+](C)(C)Cc2ccccc2)cc1`, the IC50 is 35.9 µM.

`CCn1cc(C(=O)NCC(C)C)c(=O)c2cc(F)c(N3CCN(C)CC3)cc21`: the IC50 is 38.2 µM.

The values above are taken from PubChem BioAssay AID1863 (Southern Research Specialized Biocontainment Screening …, 2009).
